According to PubChem BioAssay AID296 (DTP/NCI, 2004):
Values joined by “and” are separate entries in the source; they are usually repeats but may differ in a detail not shown here. Equal entries are not always repeated. Inconclusive results are not listed.

Tested on: MX-1 breast xenograft, nude mice, tumor weight T/C
Experiment: NCI In Vivo Anticancer Drug Screen. Data for tumor model Human Mammary Carcinoma MX-1 Xenograft (intrarenal inoculation) in NU/NU Swiss (nude) mice
Conditions: endpoint: mean tumor weight change, higher = larger tumour
Description: The antitumor activity of compounds was measured in mice bearing transplantable tumors. Survival or tumor size were measured and the results are expressed as the measurement made in the treated group (T) divided by the measurement made in the vehicle treated control group (C). The tumor model used in this assay is Human Mammary Carcinoma MX-1 Xenograft (intrarenal inoculation) in NU/NU Swiss (nude) mice

[1] = dose: 8.0 mg/kg/injection, schedule: Q01DX010 (sc), vehicle: saline
[2] = dose: 16.0 mg/kg/injection, schedule: Q01DX010 (sc), vehicle: saline
[3] = dose: 50.0 mg/kg/injection, schedule: Q04DX003 (sc), vehicle: saline
[4] = dose: 100.0 mg/kg/injection, schedule: Q04DX003 (sc), vehicle: saline
[5] = dose: 150.0 mg/kg/injection, schedule: Q04DX003 (sc), vehicle: saline
[6] = dose: 300.0 mg/kg/injection, schedule: Q04DX003 (sc), vehicle: saline
[7] = dose: 200.0 mg/kg/injection, schedule: Q04DX003 (sc), vehicle: saline
[8] = dose: 400.0 mg/kg/injection, schedule: Q04DX003 (sc), vehicle: saline
[9] = dose: 200.0 mg/kg/injection, schedule: Q04DX003 (sc), vehicle: saline with Tween-80
[10] = dose: 400.0 mg/kg/injection, schedule: Q04DX003 (sc), vehicle: saline with Tween-80
[11] = dose: 800.0 mg/kg/injection, schedule: Q04DX003 (sc), vehicle: saline with Tween-80

## COc1cc(C(=O)c2cc3c(cc2C)OCO3)cc(OC)c1OC
dose: 150.0 mg/kg/injection, schedule: Q04DX003 (sc), vehicle: Klucel (hydroxypropylcellulose) (HPC)
  T/C: 46 % of control
dose: 300.0 mg/kg/injection, schedule: Q04DX003 (sc), vehicle: Klucel (hydroxypropylcellulose) (HPC)
  T/C: 44 % of control
dose: 600.0 mg/kg/injection, schedule: Q04DX003 (sc), vehicle: Klucel (hydroxypropylcellulose) (HPC)
  T/C: 43 % of control
dose: 1200.0 mg/kg/injection, schedule: Q04DX003 (sc), vehicle: Klucel (hydroxypropylcellulose) (HPC)
  T/C: 53 % of control

## CN(C)c1ccc(C(=C2C=CC(=[N+](C)C)C=C2)c2ccc(N(C)C)cc2)cc1 (tested in a mixture with another compound)
dose: 15.0 mg/kg/injection, schedule: Q04DX003 (sc), vehicle: saline with Tween-80
  T/C: 70 % of control
dose: 30.0 mg/kg/injection, schedule: Q04DX003 (sc), vehicle: saline with Tween-80
  T/C: 104 % of control
dose: 60.0 mg/kg/injection, schedule: Q04DX003 (sc), vehicle: saline with Tween-80
  T/C: 97 % of control
dose: 120.0 mg/kg/injection, schedule: Q04DX003 (sc), vehicle: saline with Tween-80
  T/C: 82 % of control

## C=CC(=O)NCNC(=O)C=C
dose: 50.0 mg/kg/injection, schedule: Q01DX010 (sc), vehicle: saline
  T/C: 82 % of control
dose: 100.0 mg/kg/injection, schedule: Q01DX010 (sc), vehicle: saline
  T/C: 91 % of control

## COc1cc([C@@H]2c3cc4c(cc3[C@@H](OC3OC5CO[C@@H](c6cccs6)OC5C(O)C3O)[C@H]3COC(=O)[C@H]23)OCO4)cc(OC)c1O (some centres undefined)
[1]
  T/C: 67 % of control
[2]
  T/C: 60 % of control
dose: 32.0 mg/kg/injection, schedule: Q01DX010 (sc), vehicle: saline
  T/C: 96 % of control
dose: 64.0 mg/kg/injection, schedule: Q01DX010 (sc), vehicle: saline
  T/C: 44 % of control
dose: 66.0 mg/kg/injection, schedule: Q01DX010 (sc), vehicle: saline
  T/C: 55 % of control
dose: 132.0 mg/kg/injection, schedule: Q01DX010 (sc), vehicle: saline
  T/C: 34 % of control
dose: 264.0 mg/kg/injection, schedule: Q01DX010 (sc), vehicle: saline
  T/C: 40 % of control
dose: 528.0 mg/kg/injection, schedule: Q01DX010 (sc), vehicle: saline
  T/C: 79 % of control

## O=c1[nH]cc(F)c(=O)[nH]1
dose: 10.0 mg/kg/injection, schedule: Q01DX010 (sc), vehicle: saline
  T/C: 67 % of control and 90 % of control
[3]
  T/C: 44 % of control and 54 % of control and 55 % of control
[4]
  T/C: 13 % of control

## O=c1n(CC2CO2)c(=O)n(CC2CO2)c(=O)n1CC1CO1 (centres undefined)
dose: 25.0 mg/kg/injection, schedule: Q04DX003 (sc), vehicle: saline
  T/C: 26 % of control
[3]
  T/C: 4 % of control

## CC(C)(C[NH-])C[NH-].[Cl][Pt+2][Cl]
dose: 1.5 mg/kg/injection, schedule: Q04DX003 (ip), vehicle: other
  T/C: 117 % of control
dose: 1.5 mg/kg/injection, schedule: Q04DX003 (ip), vehicle: water
  T/C: 4 % of control
dose: 3.0 mg/kg/injection, schedule: Q04DX003 (ip), vehicle: other
  T/C: 112 % of control
dose: 3.0 mg/kg/injection, schedule: Q04DX003 (ip), vehicle: water
  T/C: -58 % of control
dose: 6.0 mg/kg/injection, schedule: Q04DX003 (ip), vehicle: water
  T/C: -84 % of control

## COc1cc([C@@H]2c3cc4c(cc3[C@@H](OC3OC5COC(C)OC5C(O)C3O)[C@H]3COC(=O)[C@H]23)OCO4)cc(OC)c1O (some centres undefined)
dose: 2.0 mg/kg/injection, schedule: Q01DX010 (sc), vehicle: saline
  T/C: 72 % of control
dose: 4.0 mg/kg/injection, schedule: Q01DX010 (sc), vehicle: saline
  T/C: 97 % of control
[1]
  T/C: 51 % of control
[2]
  T/C: 72 % of control

## ClCCCCCCCCCCc1ccccc1
dose: 100.0 mg/kg/injection, schedule: Q01DX010 (sc), vehicle: Klucel (hydroxypropylcellulose) (HPC)
  T/C: 89 % of control
dose: 200.0 mg/kg/injection, schedule: Q01DX010 (sc), vehicle: Klucel (hydroxypropylcellulose) (HPC)
  T/C: 44 % of control
dose: 400.0 mg/kg/injection, schedule: Q01DX010 (sc), vehicle: Klucel (hydroxypropylcellulose) (HPC)
  T/C: 116 % of control
dose: 800.0 mg/kg/injection, schedule: Q01DX010 (sc), vehicle: Klucel (hydroxypropylcellulose) (HPC)
  T/C: 93 % of control

## COC1=CC(=O)C(OC)=C(OC)C1=O
dose: 37.5 mg/kg/injection, schedule: Q04DX003 (sc), vehicle: saline with Tween-80
  T/C: 86 % of control
dose: 150.0 mg/kg/injection, schedule: Q04DX003 (sc), vehicle: saline with Tween-80
  T/C: 93 % of control

## Nc1ncn(C2CC(O)C(CO)O2)c(=O)n1 (centres undefined)
dose: 0.2 mg/kg/injection, schedule: Q01DX010 (sc), vehicle: saline
  T/C: 114 % of control

## C=C(C)[C@@H]1CCc2c(O)c(O)c(=O)cc(C)c2C1
[5]
  T/C: 91 % of control
[6]
  T/C: 107 % of control
dose: 600.0 mg/kg/injection, schedule: Q04DX003 (sc), vehicle: saline
  T/C: 89 % of control
dose: 1200.0 mg/kg/injection, schedule: Q04DX003 (sc), vehicle: saline
  T/C: 98 % of control

## O=C(NP(=O)(N1CC1)N1CC1)c1cc(I)ccc1I
dose: 37.5 mg/kg/injection, schedule: Q04DX003 (sc), vehicle: saline
  T/C: 23 % of control
dose: 75.0 mg/kg/injection, schedule: Q04DX003 (sc), vehicle: suspension in saline
  T/C: -60 % of control
[5]
  T/C: -9 % of control
dose: 150.0 mg/kg/injection, schedule: Q04DX003 (sc), vehicle: suspension in saline
  T/C: 11 % of control
[6]
  T/C: -100 % of control
dose: 300.0 mg/kg/injection, schedule: Q04DX003 (sc), vehicle: suspension in saline
  T/C: -27 % of control
dose: 600.0 mg/kg/injection, schedule: Q04DX003 (sc), vehicle: suspension in saline
  T/C: 2 % of control

## NCCc1cc(O)c(O)c(O)c1
[4]
  T/C: 59 % of control
[7]
  T/C: 150 % of control
[8]
  T/C: 154 % of control
dose: 800.0 mg/kg/injection, schedule: Q04DX003 (sc), vehicle: saline
  T/C: 72 % of control

## Nc1ncnc2c1ncn2C1OC(CO)C(O)C1O (centres undefined)
dose: 38.0 mg/kg/injection, schedule: Q04DX003 (sc), vehicle: saline
  T/C: 84 % of control
[4]
  T/C: 120 % of control
[9]
  T/C: 100 % of control
[7]
  T/C: 72 % of control and 85 % of control
[10]
  T/C: 84 % of control
[8]
  T/C: 91 % of control
[11]
  T/C: 217 % of control
dose: 1600.0 mg/kg/injection, schedule: Q04DX003 (sc), vehicle: saline with Tween-80
  T/C: 104 % of control
dose: 1600.0 mg/kg/injection, schedule: Q04DX003 (sc), vehicle: saline
  T/C: 52 % of control

## CC(=O)NC(C=O)OCC=O (centres undefined)
dose: 100.0 mg/kg/injection, schedule: Q04DX003 (sc), vehicle: water
  T/C: 108 % of control
dose: 200.0 mg/kg/injection, schedule: Q04DX003 (sc), vehicle: water
  T/C: 72 % of control
dose: 400.0 mg/kg/injection, schedule: Q04DX003 (sc), vehicle: water
  T/C: 91 % of control

## N#Cc1c(-c2ccc(F)cc2)c(-c2ccc(F)cc2)nn(CCO)c1=O
dose: 100.0 mg/kg/injection, schedule: Q04DX003 (ip), vehicle: distilled water + Tween-80
  T/C: 101 % of control
dose: 200.0 mg/kg/injection, schedule: Q04DX003 (ip), vehicle: distilled water + Tween-80
  T/C: 80 % of control

## CCOC(=O)c1ccc(NN=NCCF)cc1
dose: 150.0 mg/kg/injection, schedule: Q04DX003 (ip), vehicle: distilled water + Tween-80 + alcohol
  T/C: 107 % of control
dose: 300.0 mg/kg/injection, schedule: Q04DX003 (ip), vehicle: distilled water + Tween-80 + alcohol
  T/C: 112 % of control
dose: 600.0 mg/kg/injection, schedule: Q04DX003 (ip), vehicle: distilled water + Tween-80 + alcohol
  T/C: 55 % of control

## ClC1=C(Cl)C(Cl)=C(Cl)C1=Cc1ccccc1
dose: 100.0 mg/kg/injection, schedule: Q04DX003 (sc), vehicle: saline with Tween-80
  T/C: 98 % of control
[9]
  T/C: 119 % of control
[10]
  T/C: 98 % of control
[11]
  T/C: 110 % of control

## Nc1nc(=O)n(C2OC(CO)C(O)C2O)cc1F (centres undefined)
dose: 300.0 mg/kg/injection, schedule: Q04DX003 (sc), vehicle: saline with Tween-80
  T/C: 103 % of control
dose: 600.0 mg/kg/injection, schedule: Q04DX003 (sc), vehicle: saline with Tween-80
  T/C: 77 % of control
dose: 1200.0 mg/kg/injection, schedule: Q04DX003 (sc), vehicle: saline with Tween-80
  T/C: 81 % of control
dose: 2400.0 mg/kg/injection, schedule: Q04DX003 (sc), vehicle: saline with Tween-80
  T/C: 32 % of control
